Source: patent publication US20150105252A1, “SUBSTITUTED PYRAZOLES AS HERBICIDES” (E I DU PONT DE NEMOURS AND COMPANY, priority 2013, published 2015)

What was measured:
[1] = test system: nightshade; test: Test F preemergence; assay type: in vivo, Solanum ptycanthum
In short: (§1)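 Plant response is scored by eye relative to controls on a 0 to 100 scale, where 100 means complete control. Preemergence applications were made to seeded silt loam; postemergence ones to seedlings 2 to 18 cm high. Greenhouse holding time was 14 to 21 days.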

[2] = test system: oilseed rape; test: Test D postemergence; assay type: in vivo, Brassica napus; conditions: scale 0 to 100
In short: (§2)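 Preemergence: seeds sown in silt loam soil and sprayed with test chemical in non-phytotoxic solvent mixture with surfactant. Postemergence: plants grown in peat/vermiculite medium, sprayed at 2–18 cm (1- to 4-leaf stage). Visual rating versus untreated controls after 14–21 days, 0 (no effect) to 100 (complete control).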

[3] = test system: kochia; test: Test D postemergence; assay type: in vivo, Kochia scoparia; conditions: scale 0 to 100
In short: as §2

[4] = test system: wheat, winter; test: Test D preemergence; assay type: in vivo, Triticum aestivum; conditions: scale 0 to 100
In short: as §2

[5] = test system: wheat, spring; test: Test D preemergence; assay type: in vivo, Triticum aestivum; conditions: scale 0 to 100
In short: as §2

[6] = test system: blackgrass; test: Test D preemergence; assay type: in vivo, Alopecurus myosuroides; conditions: scale 0 to 100
In short: as §2

[7] = test system: pigweed, palmer; test: Test F preemergence; assay type: in vivo, Amaranthus palmeri
In short: as §1

[8] = test system: speedwell; test: Test D postemergence; assay type: in vivo, Veronica persica; conditions: scale 0 to 100
In short: as §2

[9] = test system: morningglory; test: Test F preemergence; assay type: in vivo, Ipomoea coccinea
In short: as §1

[10] = test system: bluegrass; test: Test D postemergence; assay type: in vivo, Poa annua; conditions: scale 0 to 100
In short: as §2

[11] = test system: goosegrass; test: Test F preemergence; assay type: in vivo, Eleusine indica
In short: as §1

[12] = test system: foxtail, green; test: Test D preemergence; assay type: in vivo, Setaria viridis; conditions: scale 0 to 100
In short: as §2

[13] = test system: barley, spring; test: Test D postemergence; assay type: in vivo, Hordeum vulgare; conditions: scale 0 to 100
In short: as §2

[14] = test system: barley, winter; test: Test D postemergence; assay type: in vivo, Hordeum vulgare; conditions: scale 0 to 100
In short: as §2

[15] = Preemergence, 31 g ai/ha, scale 0 to 100
[16] = Preemergence, 62 g ai/ha, scale 0 to 100
[17] = Preemergence, 125 g ai/ha, scale 0 to 100
[18] = preemergence, 8 g ai/ha, scale 0 to 100, 100 is complete control
[19] = preemergence, 16 g ai/ha, scale 0 to 100, 100 is complete control
[20] = Preemergence, 16 g ai/ha, scale 0 to 100

Structure (SMILES): CCCc1cc(C(=O)NCC(F)(F)F)nn1Cc1ccnc(C(F)(F)F)c1 [Compound 105]
- Plant response rating, Nightshade [1, 15]: 70
- Plant response rating, Nightshade [1, 16]: 100
- Plant response rating, Nightshade [1, 17]: 100
- Plant response rating, Nightshade [1, 18]: 0
- Plant response rating, Nightshade [1, 19]: 65
- Oilseed Rape plant response rating ([2]; Postemergence, 31 g ai/ha): 40
- Oilseed Rape plant response rating ([2]; Postemergence, 125 g ai/ha): 70
- Oilseed Rape plant response rating ([2]; Postemergence, 250 g ai/ha): 85
- Oilseed Rape plant response rating ([2]; postemergence, 62 g ai/ha): 60
- Kochia plant response rating ([3]; Postemergence, 31 g ai/ha): 75
- Kochia plant response rating ([3]; Postemergence, 125 g ai/ha): 80
- Kochia plant response rating ([3]; Postemergence, 250 g ai/ha): 80
- Kochia plant response rating ([3]; postemergence, 62 g ai/ha): 75
- Plant response rating, Wheat, Winter ([4]; 31 g ai/ha): 15
- Plant response rating, Wheat, Winter ([4]; 62 g ai/ha): 35
- Plant response rating, Wheat, Winter ([4]; 125 g ai/ha): 75
- Plant response rating, Wheat, Winter ([4]; 250 g ai/ha): 90
- Plant response rating, Wheat, Spring ([5]; 31 g ai/ha): 10
- Plant response rating, Wheat, Spring ([5]; 62 g ai/ha): 40
- Plant response rating, Wheat, Spring ([5]; 125 g ai/ha): 75
- Plant response rating, Wheat, Spring ([5]; 250 g ai/ha): 100
- Plant response rating, Blackgrass ([6]; 31 g ai/ha): 25
- Plant response rating, Blackgrass ([6]; 62 g ai/ha): 80
- Plant response rating, Blackgrass ([6]; 125 g ai/ha): 100
- Plant response rating, Blackgrass ([6]; 250 g ai/ha): 100
- Plant response rating, Pigweed, Palmer [7, 16]: 50
- Plant response rating, Pigweed, Palmer [7, 17]: 80
- Plant response rating, Pigweed, Palmer [7, 18]: 0
- Plant response rating, Pigweed, Palmer [7, 19]: 0
- Speedwell plant response rating ([8]; Postemergence, 31 g ai/ha): 60
- Speedwell plant response rating ([8]; Postemergence, 125 g ai/ha): 70
- Speedwell plant response rating ([8]; Postemergence, 250 g ai/ha): 95
- Speedwell plant response rating ([8]; postemergence, 62 g ai/ha): 80
- Plant response rating, Morningglory [9, 15]: 25
- Plant response rating, Morningglory [9, 16]: 90
- Plant response rating, Morningglory [9, 17]: 95
- Plant response rating, Morningglory [9, 18]: 20
- Plant response rating, Morningglory [9, 19]: 25
- Bluegrass plant response rating ([10]; Postemergence, 31 g ai/ha): 15
- Bluegrass plant response rating ([10]; Postemergence, 125 g ai/ha): 40
- Bluegrass plant response rating ([10]; Postemergence, 250 g ai/ha): 70
- Bluegrass plant response rating ([10]; postemergence, 62 g ai/ha): 15
- Plant response rating, Goosegrass [11, 15]: 40
- Plant response rating, Goosegrass [11, 16]: 90
- Plant response rating, Goosegrass [11, 17]: 98
- Plant response rating, Goosegrass [11, 18]: 30
- Plant response rating, Goosegrass [11, 19]: 35
- Plant response rating, Foxtail, Green ([12]; 31 g ai/ha): 45
- Plant response rating, Foxtail, Green ([12]; 62 g ai/ha): 100
- Plant response rating, Foxtail, Green ([12]; 125 g ai/ha): 100
- Plant response rating, Foxtail, Green ([12]; 250 g ai/ha): 100
- Barley, Spring plant response rating ([13]; Postemergence, 31 g ai/ha): 10
- Barley, Spring plant response rating ([13]; Postemergence, 125 g ai/ha): 30
- Barley, Spring plant response rating ([13]; Postemergence, 250 g ai/ha): 45
- Barley, Spring plant response rating ([13]; postemergence, 62 g ai/ha): 10
- Barley, Winter plant response rating ([14]; Postemergence, 31 g ai/ha): 10
- Barley, Winter plant response rating ([14]; Postemergence, 125 g ai/ha): 20
- Barley, Winter plant response rating ([14]; Postemergence, 250 g ai/ha): 30
- Barley, Winter plant response rating ([14]; postemergence, 62 g ai/ha): 10

Structure (SMILES): CCOc1cc(C(=O)NC(C)C)nn1Cc1ccnc(C(F)(F)F)c1 [Compound 188]
- Plant response rating, Nightshade [1, 20]: 98
- Plant response rating, Nightshade [1, 16]: 95
- Plant response rating, Nightshade [1, 17]: 98
- Plant response rating, Nightshade [1, 18]: 0
- Oilseed Rape plant response rating ([2]; Postemergence, 31 g ai/ha): 55
- Oilseed Rape plant response rating ([2]; Postemergence, 125 g ai/ha): 55
- Oilseed Rape plant response rating ([2]; Postemergence, 250 g ai/ha): 70
- Oilseed Rape plant response rating ([2]; postemergence, 62 g ai/ha): 55
- Kochia plant response rating ([3]; Postemergence, 31 g ai/ha): 75
- Kochia plant response rating ([3]; Postemergence, 125 g ai/ha): 80
- Kochia plant response rating ([3]; Postemergence, 250 g ai/ha): 85
- Kochia plant response rating ([3]; postemergence, 62 g ai/ha): 75
- Plant response rating, Wheat, Winter ([4]; 62 g ai/ha): 65
- Plant response rating, Wheat, Winter ([4]; 125 g ai/ha): 95
- Plant response rating, Wheat, Winter ([4]; 250 g ai/ha): 100
- Plant response rating, Wheat, Spring ([5]; 62 g ai/ha): 70
- Plant response rating, Wheat, Spring ([5]; 125 g ai/ha): 100
- Plant response rating, Wheat, Spring ([5]; 250 g ai/ha): 100
- Plant response rating, Blackgrass ([6]; 31 g ai/ha): 55
- Plant response rating, Blackgrass ([6]; 62 g ai/ha): 75
- Plant response rating, Blackgrass ([6]; 125 g ai/ha): 100
- Plant response rating, Blackgrass ([6]; 250 g ai/ha): 100
- Plant response rating, Pigweed, Palmer [7, 17]: 50
- Plant response rating, Pigweed, Palmer [7, 18]: 0
- Speedwell plant response rating ([8]; Postemergence, 31 g ai/ha): 75
- Speedwell plant response rating ([8]; Postemergence, 125 g ai/ha): 80
- Speedwell plant response rating ([8]; Postemergence, 250 g ai/ha): 90
- Speedwell plant response rating ([8]; postemergence, 62 g ai/ha): 75
- Plant response rating, Morningglory [9, 20]: 30
- Plant response rating, Morningglory [9, 16]: 70
- Plant response rating, Morningglory [9, 17]: 100
- Plant response rating, Morningglory [9, 18]: 65
- Bluegrass plant response rating ([10]; Postemergence, 31 g ai/ha): 20
- Bluegrass plant response rating ([10]; Postemergence, 125 g ai/ha): 30
- Bluegrass plant response rating ([10]; Postemergence, 250 g ai/ha): 35
- Bluegrass plant response rating ([10]; postemergence, 62 g ai/ha): 20
- Plant response rating, Goosegrass [11, 16]: 98
- Plant response rating, Goosegrass [11, 17]: 100
- Plant response rating, Goosegrass [11, 18]: 5
- Plant response rating, Foxtail, Green ([12]; 62 g ai/ha): 100
- Plant response rating, Foxtail, Green ([12]; 125 g ai/ha): 100
- Plant response rating, Foxtail, Green ([12]; 250 g ai/ha): 100
- Barley, Spring plant response rating ([13]; Postemergence, 31 g ai/ha): 15
- Barley, Spring plant response rating ([13]; Postemergence, 125 g ai/ha): 25
- Barley, Spring plant response rating ([13]; Postemergence, 250 g ai/ha): 65
- Barley, Spring plant response rating ([13]; postemergence, 62 g ai/ha): 15
- Barley, Winter plant response rating ([14]; Postemergence, 31 g ai/ha): 15
- Barley, Winter plant response rating ([14]; Postemergence, 125 g ai/ha): 40
- Barley, Winter plant response rating ([14]; Postemergence, 250 g ai/ha): 65
- Barley, Winter plant response rating ([14]; postemergence, 62 g ai/ha): 15
